# Experimental data reported in patent US20250296971A1, “GASTRIC INHIBITORY PEPTIDE RECEPTOR LIGANDS” (priority 2021, published 2025).
# *1 amine or outer side, *2 acyl side, *3 side chain or, on linkers, in order; H or OH if unused. Where a SMILES comes first, the peptide text is derived from it. Bridges are numbered along the chain shown (N, C = ends). [ ]: non-standard residue; d: D form. The star is where a group is joined. X14 = NC(=O)[C@H](CCCCNC(=O)CN1CCN2CCN3CCN(CC1)CC(=O)[O][In]([O]C(=O)C2)[O]C(=O)C3)NC(=O)CCC(=O)NCCCOCCOCCOCCCN*; X3 = O=C(O)CN1CCN(CC(=O)O)CCN(CC(=O)NCCCOCCOCCOCCCN*)CCN(CC(=O)O)CC1; NH(1-deoxy-D-glucityl) = OC[C@@H](O)[C@@H](O)[C@H](O)[C@@H](O)CN*; DOTA = O=C(O)CN1CCN(CC(=O)O)CCN(CC(=O)*)CCN(CC(=O)O)CC1; Trp(5-Cl) = N[C@@H](Cc1c[nH]c2ccc(Cl)cc12)C(=O)O; Trp(5-OH) = N[C@@H](Cc1c[nH]c2ccc(O)cc12)C(=O)O; Pyridine(2,6-diCH2) = c1cc(C[*:1])nc(C[*:2])c1; X22 = O=C([C@H](Cc1cccc(Cl)c1Cl)N[*:1])[*:2]; Pro(4R-NH2) = N[C@H]1CN[C@H](C(=O)O)C1; 1Nal = N[C@@H](Cc1cccc2ccccc12)C(=O)O; mXylylene = c1cc(C[*:1])cc(C[*:2])c1; X29 = c1cc(CNCCN[*:2])cc(C[*:1])c1; Hyp = O=C(O)[C@@H]1C[C@@H](O)CN1; X1 = O=C(CN1CCC(N[*:1])CC1)[*:2]; Suc = O=C(CCC(=O)[*:2])[*:1]; Thp = NC1(C(=O)O)CCOCC1; AEEA = NCCOCCOCC(=O)O; Aib = CC(C)(N)C(=O)O
# Target: T1, GIPR (CHO-K1-hGIPR cells) (Homo sapiens, UniProt P48546)
# T1 construct: host or cells: CHO-K1
# T1 sequence (P48546 22-466): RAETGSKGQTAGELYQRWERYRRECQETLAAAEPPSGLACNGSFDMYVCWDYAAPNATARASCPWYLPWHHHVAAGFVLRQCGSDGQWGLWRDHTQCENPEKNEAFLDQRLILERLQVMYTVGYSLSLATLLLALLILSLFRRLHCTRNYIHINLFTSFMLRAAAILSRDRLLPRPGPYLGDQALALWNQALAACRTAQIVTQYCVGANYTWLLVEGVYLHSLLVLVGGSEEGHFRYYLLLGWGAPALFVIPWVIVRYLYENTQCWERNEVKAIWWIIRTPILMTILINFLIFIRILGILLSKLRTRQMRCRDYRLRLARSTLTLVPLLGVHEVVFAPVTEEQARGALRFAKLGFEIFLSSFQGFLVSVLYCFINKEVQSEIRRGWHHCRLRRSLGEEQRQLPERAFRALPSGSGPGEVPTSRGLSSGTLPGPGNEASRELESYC
# Test: FACS binding assay
# Details: competition with 20 nM GIP-057, 4° C., 1 hour, read-out: pIC50 Category (converted)
# Outline: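 CHO-K1 cells expressing human GIPR, washed in PBS/1% FCS, then stained with 1 μg/mL APC-streptavidin for 30 min on ice.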
row,SMILES,IC50 [nM]
1,"CC[C@H](C)[C@@H]1NC(=O)[C@H](CC(C)C)NC(=O)C(C)(C)NC(=O)[C@@H](NC(=O)[C@@H](CC(C)C)NC(=O)[C@H](CCC(=O)O)NC(=O)[C@@H]2CCCN2C(=O)[C@H](Cc2cccc3ccccc23)NC(=O)[C@H](Cc2c[nH]c3ccccc23)NC(=O)[C@H](CC(=O)O)NC(C)=O)CSCc2cccc(c2)CSC[C@@H](C(=O)NCCCOCCOCCOCCCNC(=O)CCC(=O)N[C@@H](CCCCNC(=O)CN2CCN3CCN4CCN(CC2)CC(=O)[O][In]([O]C(=O)C3)[O]C(=O)C4)C(N)=O)NC1=O [GIP-165, Ac-Asp-Trp-1Ni-Pro-Glu-leu-[Cys(3MeBn)-Aib-Leu-Ile-Cys]-Ttds-Lys(InDOTA)-NH2] (Ac-DW[1Nal]PE[dL]C[Aib]LIC-X14; linker 7-11 via mXylylene)",< 10
2,"CC[C@H](C)[C@@H]1NC(=O)[C@H](CC(C)C)NC(=O)C2(CCOCC2)NC(=O)[C@@H](NC(=O)[C@@H](CC(C)C)NC(=O)[C@H](CCC(=O)O)NC(=O)[C@@H]2C[C@@H](O)CN2C(=O)[C@H](Cc2c[nH]c3ccc(Cl)cc23)NC(=O)[C@H](Cc2c[nH]c3ccc(O)cc23)NC(=O)[C@H](CC(=O)O)NC(C)=O)CSCc2cccc(n2)CSC[C@@H](C(N)=O)NC1=O [GIP-220, Ac-Asp-Hyw-5Clw-Hyp-Glu-leu-[Cys(2Lut)-Thp-Leu-Ile-Cys]-NH2] (Ac-D[Trp(5-OH)][Trp(5-Cl)][Hyp]E[dL]C[Thp]LIC-NH2; linker 7-11 via Pyridine(2,6-diCH2))",< 10
3,"CC[C@H](C)[C@@H]1NC(=O)[C@H](CC(C)C)NC(=O)C2(CCOCC2)NC(=O)[C@@H](NC(=O)[C@@H](CC(C)C)NC(=O)[C@H](CCC(=O)O)NC(=O)[C@@H]2C[C@@H](N)CN2C(=O)[C@H](Cc2c[nH]c3ccc(Cl)cc23)NC(=O)[C@H](Cc2c[nH]c3ccccc23)NC(=O)[C@H](CC(=O)O)NC(=O)COCCOCCNC(=O)[C@@H](CCC(=O)NC[C@H](O)[C@@H](O)[C@H](O)[C@H](O)CO)NC(=O)CN2CCN(CC(=O)O)CCN(CC(=O)O)CCN(CC(=O)O)CC2)CSCc2cccc(n2)CSC[C@@H](C(=O)NC2CCN(CC(=O)N[C@H](CCC(=O)NC[C@H](O)[C@@H](O)[C@H](O)[C@H](O)CO)C(N)=O)CC2)NC1=O [GIP-020, DOTA-glu(AGLU)-O2Oc-Asp-Trp-5Clw-Tap-Glu-leu-[Cys(2Lut)-Thp-Leu-Ile-Cys]-APAc-glu(AGLU)-NH2] ({DOTA}-[dE](NH(1-deoxy-D-glucityl))[AEEA]DW[Trp(5-Cl)][Pro(4R-NH2)]E[dL]C[Thp]LIC[X1][dE](NH(1-deoxy-D-glucityl))-NH2; linker 9-13 via Pyridine(2,6-diCH2))",< 10
4,"CC[C@H](C)[C@@H]1NC(=O)[C@H](CC(C)C)NC(=O)C(C)(C)NC(=O)[C@@H](NC(=O)[C@@H](CC(C)C)NC(=O)[C@H](CCC(=O)O)NC(=O)[C@@H]2CCCN2C(=O)[C@H](Cc2c[nH]c3ccc(Cl)cc23)NC(=O)[C@H](Cc2c[nH]c3ccccc23)NC(=O)[C@H](CC(=O)O)NC(=O)CCC(=O)NCCCOCCOCCOCCCNC(=O)CN2CCN(CC(=O)O)CCN(CC(=O)O)CCN(CC(=O)O)CC2)CSCc2cccc(c2)CNCCNC1=O [GIP-093, DOTA-Ttds-Asp-Trp-5Clw-Pro-Glu-leu-[Cys(3MeBn)-Aib-Leu-Ile-en]] ({X3-Suc}-DW[Trp(5-Cl)]PE[dL]C[Aib]LI; linker 7-C via X29)",< 10
5,"CC[C@H](C)[C@@H]1NC(=O)[C@H](CC(C)C)NC(=O)C2(CCOCC2)NC(=O)[C@@H](NC(=O)[C@@H](CC(C)C)NC(=O)[C@H](CCC(=O)O)NC(=O)[C@@H]2C[C@@H](O)CN2C(=O)[C@H](Cc2c[nH]c3ccc(Cl)cc23)NC(=O)[C@H](Cc2c[nH]c3ccccc23)NC(=O)[C@H](CC(=O)O)NC(=O)CN2CCN(CC(=O)O)CCN(CC(=O)O)CCN(CC(=O)O)CC2)CSCc2cccc(n2)CSC[C@@H](C(N)=O)NC1=O [GIP-125, DOTA-Asp-Trp-5Clw-Hyp-Glu-leu-[Cys(2Lut)-Thp-Leu-Ile-Cys]-NH2] ({DOTA}-DW[Trp(5-Cl)][Hyp]E[dL]C[Thp]LIC-NH2; linker 7-11 via Pyridine(2,6-diCH2))",< 10
6,"CC[C@H](C)[C@@H]1NC(=O)[C@H](CC(C)C)NC(=O)C2(CCOCC2)NC(=O)[C@@H](NC(=O)[C@@H](CC(C)C)NC(=O)[C@H](CCC(=O)O)NC(=O)[C@@H]2C[C@@H](O)CN2C(=O)[C@H](Cc2c[nH]c3ccc(Cl)cc23)NC(=O)[C@H](Cc2cccc(Cl)c2Cl)NC(=O)[C@H](CC(=O)O)NC(C)=O)CSCc2cccc(n2)CSC[C@@H](C(N)=O)NC1=O [GIP-226, Ac-Asp-Egp-5Clw-Hyp-Glu-leu-[Cys(2Lut)-Thp-Leu-Ile-Cys]-NH2] (Ac-D[X22][Trp(5-Cl)][Hyp]E[dL]C[Thp]LIC-NH2; linker 7-11 via Pyridine(2,6-diCH2))",< 10
